pIC50: −log10 of the molar value.

T1 sequence (P04629 33-796): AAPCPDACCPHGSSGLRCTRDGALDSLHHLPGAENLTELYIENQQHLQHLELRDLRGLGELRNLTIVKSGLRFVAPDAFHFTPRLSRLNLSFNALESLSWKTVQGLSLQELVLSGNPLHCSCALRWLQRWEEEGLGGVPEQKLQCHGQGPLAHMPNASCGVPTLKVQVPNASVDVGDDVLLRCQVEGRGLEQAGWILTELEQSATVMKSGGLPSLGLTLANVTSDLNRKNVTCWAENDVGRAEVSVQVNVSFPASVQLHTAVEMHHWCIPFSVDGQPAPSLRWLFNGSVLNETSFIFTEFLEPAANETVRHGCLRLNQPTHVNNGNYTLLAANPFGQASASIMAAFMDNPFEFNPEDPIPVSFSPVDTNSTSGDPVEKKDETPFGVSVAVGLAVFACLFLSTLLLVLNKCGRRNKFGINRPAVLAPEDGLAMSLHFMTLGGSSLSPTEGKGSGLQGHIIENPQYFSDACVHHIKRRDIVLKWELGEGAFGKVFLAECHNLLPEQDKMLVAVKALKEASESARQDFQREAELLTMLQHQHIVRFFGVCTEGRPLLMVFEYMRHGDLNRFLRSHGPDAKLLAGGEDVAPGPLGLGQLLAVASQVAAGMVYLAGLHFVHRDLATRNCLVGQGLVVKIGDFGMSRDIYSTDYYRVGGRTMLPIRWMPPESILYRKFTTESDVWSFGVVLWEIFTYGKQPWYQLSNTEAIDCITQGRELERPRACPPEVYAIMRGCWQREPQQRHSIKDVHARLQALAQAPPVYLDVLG

The first test concerns the target T1, TrkA kinase (Homo sapiens, UniProt P04629).
T1 construct: purchased Upstate, USA
As to the kind of experiment: In vitro TrkA inhibitory activity using TR-FRET assay. In kind it is biochemical. The following applies: 5 ng TrkA, 500 μM ATP, both bounds given in nm, read-out: TrkA inhibitory activity in-vitro IC50. The method, then:
Determination of In Vitro TrkA Inhibitory Activity Using TR-FRET Assay
Compounds were screened in the TR-FRET assay with TrkA kinase. 5 ng of TrkA [Upstate, USA] kinase was used for assay. The compound was incubated with the kinase for 30 minutes at 20-35° C. After the incubation, substrate mix [40 nM Ultra light poly GT (Perkin Elmer, USA) and 500 μM ATP] was added. The above reaction was stopped by the addition of 40 mM EDTA after 30 minutes. The Eu-labelled antiphospho-tyrosine antibody [Perkin Elmer, USA] was added at 0.5 nM and the fluorescence emission at 615 nm/665 nm [excitation at 340 nm] was measured. The compounds were initially screened at 100 nM, 1 μM and 10 μM concentrations. The potent compounds with >25% inhibition at 1 μM of TrkA were taken for the full dose response studies. The final DMSO concentration in the assay was […]. For IC50 determination, ⅓^rd serial dilution was made from the 20 mM DMSO stock solution. 2 μl of these were transferred to the test wells containing 20 μl reaction mixture [Total reaction volume 22 μl]. The fluorescence was measured in Perkin Elmer Wallac 1420 Multilabel Counter Victor 3. The IC50 was determined by fitting the dose response data to a sigmoidal curve fitting equation using GraphPad Prism software version 5.
With `CCC1(S(=O)(=O)NC(=O)c2cnn3ccc(N4CCC[C@@H]4c4cc(F)ccc4F)cc23)CC1` [Example 36, (R)-5-(2-(2,5-difluorophenyl)pyrrolidin-1-yl)-N-((1-ethylcyclopropyl)sulfonyl) pyrazolo[1,5-a]pyridine-3-carboxamide], the pIC50 is 6.30 to 7.00.
Take `O=C(NS(=O)(=O)N1CC[C@H](O)C1)c1cnn2ccc(N3CCC[C@@H]3c3cc(F)ccc3F)cc12` [Example 93, 5-((R)-2-(2,5-difluorophenyl)pyrrolidin-1-yl)-N-(((S)-3-hydroxypyrrolidin-1-yl)sulfonyl)pyrazolo[1,5-a] pyridine-3-carboxamide]: the pIC50 was 6.30 to 7.00.
Take `Cn1nccc1S(=O)(=O)NC(=O)c1cnn2ccc(N3CCC[C@@H]3c3cc(F)ccc3F)cc12` [Example 19, (R)-5-(2-(2,5-difluorophenyl)pyrrolidin-1-yl)-N-((1-methyl-1H-pyrazol-5-yl)sulfonyl) pyrazolo[1,5-a]pyridine-3-carboxamide]: the pIC50 is 6.30 to 7.00.
Turning to `O=C(NS(=O)(=O)C1CCC1)c1cnn2ccc(N3CCC[C@@H]3c3cc(F)ccc3F)cc12` [Example 33, (R)-N-(cyclobutylsulfonyl)-5-(2-(2,5-difluorophenyl)pyrrolidin-1-yl)pyrazolo[1,5-a]pyridine-3-carboxamide], the pIC50 is 6.30 to 7.00.
For the compound `CN1CCN(S(=O)(=O)NC(=O)c2cnn3ccc(N4CCC[C@@H]4c4cc(F)ccc4F)cc23)CC1` [Example 86, (R)-5-(2-(2,5-difluorophenyl)pyrrolidin-1-yl)-N-((4-methylpiperazin-1-yl)sulfonyl)pyrazolo[1,5-a]pyridine-3-carboxamide], the pIC50 was 6.30 to 7.00.
For `Cn1cc(S(=O)(=O)NC(=O)c2cnn3ccc(N4CCC[C@@H]4c4cc(F)ccc4F)cc23)cn1` [Example 28, (R)-5-(2-(2,5-difluorophenyl)pyrrolidin-1-yl)-N-((1-methyl-1H-pyrazol-4-yl)sulfonyl) pyrazolo[1,5-a]pyridine-3-carboxamide], the pIC50 was 6.30 to 7.00.
On the same count and under the same terms, under `O=C(NS(=O)(=O)c1ccc(-n2cncn2)nc1)c1cnn2ccc(N3CCC[C@@H]3c3cc(F)ccc3F)cc12` [Example 27, (R)-N-((6-(1H-1,2,4-triazol-1-yl)pyridin-3-yl)sulfonyl)-5-(2-(2,5-difluorophenyl)pyrrolidin-1-yl)pyrazolo[1,5-a]pyridine-3-carboxamide] stands 6.30 to 7.00; under `CS(=O)(=O)NC(=O)c1cnn2ccc(N3CCC[C@@H]3c3cc(F)ccc3F)cc12` [Example 6, (R)-5-(2-(2,5-difluorophenyl)pyrrolidin-1-yl)-N-(methylsulfonyl)pyrazolo[1,5-a]pyridine-3-carboxamide], 6.30 to 7.00.

The test is the same for the next values; noted with them: 5 ng TrkA, 500 μM ATP, lower bound in nm [sic], upper bound in μM, read-out: TrkA inhibitory activity in-vitro IC50.
With `O=C(NS(=O)(=O)c1ccc(F)cc1)c1cnn2ccc(N3CCC[C@@H]3c3cc(F)cc(F)c3)cc12` [Example 69, (R)-5-(2-(3,5-difluorophenyl)pyrrolidin-1-yl)-N-((4-fluorophenyl)sulfonyl)pyrazolo[1,5-a]pyridine-3-carboxamide], the IC50 is 0.5 to 1 µM.

The test is the same for the next values; noted with them: 5 ng TrkA, 500 μM ATP, read-out: TrkA inhibition in-vitro IC50.
For `CCN(CC)S(=O)(=O)NC(=O)c1cnn2ccc(N3CCC[C@@H]3c3cc(F)ccc3F)cc12` [Example 81, (R)-N-(N,N-diethylsulfamoyl)-5-(2-(2,5-difluorophenyl)pyrrolidin-1-yl)pyrazolo[1,5-a]pyridine-3-carboxamide], the pIC50 is at least 7.30.
Still for that read-out and setting: under `CC(C)(C)S(=O)(=O)NC(=O)c1cnn2ccc(N3CCC[C@@H]3c3cncc(F)c3)cc12` [Example 44, (R)-N-(tert-butylsulfonyl)-5-(2-(5-fluoropyridin-3-yl)pyrrolidin-1-yl)pyrazolo[1,5-a] pyridine-3-carboxamide] stands 7.00 to 7.30; under `Cc1ccccc1S(=O)(=O)NC(=O)c1cnn2ccc(N3CCC[C@@H]3c3cc(F)ccc3F)cc12` [Example 140, Sodium (R)-(5-(2-(2,5-difluorophenyl)pyrrolidin-1-yl)pyrazolo[1,5-a]pyridine-3-carbonyl)(o-tolylsulfonyl)amide], at least 7.30.
As for `CC(C)(C)S(=O)(=O)NC(=O)c1cnn2ccc(N3CCC[C@@H]3c3cc(F)ccc3OC3CCOC3)cc12` (stereo partly drawn) [Example 60, N-(tert-butylsulfonyl)-5-((2R)-2-(5-fluoro-2-((tetrahydrofuran-3-yl)oxy)phenyl)pyrrolidin-1-yl)pyrazolo[1,5-a]pyridine-3-carboxamide], the pIC50 was 7.00 to 7.30.
Turning to `O=C(NS(=O)(=O)c1ccc2c(c1)OCCO2)c1cnn2ccc(N3CCC[C@@H]3c3cc(F)ccc3F)cc12` [Example 34, (R)-5-(2-(2,5-difluorophenyl)pyrrolidin-1-yl)-N-((2,3-dihydrobenzo[b][1,4]dioxin-6-yl)sulfonyl)pyrazolo [1,5-a]pyridine-3-carboxamide], the pIC50 is 7.00 to 7.30.
As to `CN(C(=O)c1cnn2ccc(N3CCC[C@@H]3c3cc(F)ccc3F)cc12)S(=O)(=O)c1cccc(C#N)c1` [Example 9, (R)-N-((3-cyanophenyl)sulfonyl)-5-(2-(2,5-difluorophenyl)pyrrolidin-1-yl)-N-methylpyrazolo[1,5-a] pyridine-3-carboxamide], the pIC50 is at least 7.30.
Take `O=C(NS(=O)(=O)c1ccc(N2CC[C@H](O)C2)cc1)c1cnn2ccc(N3CCC[C@@H]3c3cc(F)cc(F)c3)cc12` [Example 70, 5-((R)-2-(3,5-difluorophenyl)pyrrolidin-1-yl)-N-((4-((S)-3-hydroxypyrrolidin-1-yl)phenyl)sulfonyl)pyrazolo[1,5-a] pyridine-3-carboxamide]: the pIC50 is at least 7.30.
The same measure, in the same setting: the figure for `CCN(C)S(=O)(=O)NC(=O)c1cnn2ccc(N3CCC[C@@H]3c3cc(F)cc(F)c3OC)cc12` [Example 90, (R)-5-(2-(3,5-difluoro-2-methoxyphenyl)pyrrolidin-1-yl)-N-(N-ethyl-N-methylsulfamoyl) pyrazolo[1,5-a]pyridine-3-carboxamide] is at least 7.30; for `CC(C)S(=O)(=O)NC(=O)c1cnn2ccc(N3C[C@@H](F)C[C@@H]3c3cccc(F)c3)c(F)c12` [Example 141, Sodium (4-fluoro-5-((2R,4S)-4-fluoro-2-(3-fluorophenyl)pyrrolidin-1-yl)pyrazolo[1,5-a]pyridine-3-carbonyl) (isopropylsulfonyl)amide] it is at least 7.30.
Regarding `O=C(NS(=O)(=O)N1CCCC1)c1cnn2ccc(N3CCC[C@@H]3c3cc(F)ccc3F)cc12` [Example 85, (R)-5-(2-(2,5-difluorophenyl)pyrrolidin-1-yl)-N-(pyrrolidin-1-ylsulfonyl)pyrazolo[1,5-a]pyridine-3-carboxamide], the pIC50 was at least 7.30.
With `CCN(C)S(=O)(=O)NC(=O)c1cnn2ccc(N3CCC[C@@H]3c3cc(F)ccc3OC3CCOC3)cc12` (stereo partly drawn) [Example 139, Sodium (N-ethyl-N-methylsulfamoyl)(5-((2R)-2-(5-fluoro-2-((tetrahydrofuran-3-yl)oxy)phenyl)pyrrolidin-1-yl)pyrazolo[1,5-a]pyridine-3-carbonyl)amide], the pIC50 is at least 7.30.

Staying with this test, now noted: 5 ng TrkA, 500 μM ATP, read-out: TrkA inhibitory activity in-vitro IC50.
`CC(C)(C)S(=O)(=O)NC(=O)c1cnn2ccc(N3CC(F)C[C@@H]3c3cc(F)ccc3F)cc12` (stereo partly drawn) [Example 135, Sodium (tert-butylsulfonyl)(5-((2R)-2-(2,5-difluorophenyl)-4-fluoropyrrolidin-1-yl)pyrazolo[1,5-a]pyridine-3-carbonyl)amide]: the pIC50 was 5.00 to 6.00.
